What was measured:
[1] = Toxicity in ICR mouse assessed as decrease in serum total cholesterol level at 1 mg/kg, po administered as single dose measured after 24 hrs by automated biochemical analyzer; format: organism-based; design: scale not given: the % may be the effect or the level left; settings: in vivo
[2] = Toxicity in ICR mouse assessed as decrease in serum total LDL-cholesterol level at 1 mg/kg, po administered as single dose measured after 24 hrs by automated biochemical analyzer; format: organism-based; design: scale not given: the % may be the effect or the level left; settings: in vivo
[3] = Cardiotoxicity in ICR mouse assessed as upregulation of Myh6 mRNA expression in heart at 1 mg/kg, po administered as single dose by qRT-PCR analysis; format: toxicity, organism-based; settings: in vivo
[4] = Half life in ICR mouse at 30 mg/kg, po measured after 24 hrs by LC-MS/MS analysis; format: ADME, organism-based; settings: in vivo
[5] = Tmax in ICR mouse at 30 mg/kg, po measured after 24 hrs by LC-MS/MS analysis; format: ADME, organism-based; settings: in vivo
[6] = Cmax in ICR mouse at 30 mg/kg, po measured after 24 hrs by LC-MS/MS analysis; format: ADME, organism-based; design: time 24 hrs, dose 30 mg/kg, route po; settings: in vivo
[7] = AUClast in ICR mouse at 30 mg/kg, po measured after 24 hrs by LC-MS/MS analysis; format: ADME, organism-based; design: dose 30 mg/kg, time 24 hrs, route po; settings: in vivo
[8] = Metabolic stability in human liver microsomes assessed as half life; format: ADME, Microsome
[9] = Metabolic stability in rat liver microsomes assessed as half life; format: ADME, Microsome
[10] = Metabolic stability in mouse liver microsomes assessed as half life; format: ADME, Microsome
[11] = Metabolic stability in human liver microsomes assessed as intrinsic clearance; format: ADME, Microsome
[12] = Metabolic stability in rat liver microsomes assessed as intrinsic clearance; format: ADME, Microsome
[13] = Metabolic stability in mouse liver microsomes assessed as intrinsic clearance; format: ADME, Microsome
[14] = Half life in ICR mouse serum at 10 mg/kg, po measured after 24 hrs by LC-MS/MS analysis; format: ADME, organism-based
[15] = Tmax in ICR mouse serum at 10 mg/kg, po measured after 24 hrs by LC-MS/MS analysis; format: ADME, organism-based
[16] = Tmax in ICR mouse liver at 10 mg/kg, po measured after 24 hrs by LC-MS/MS analysis; format: ADME, organism-based
[17] = Cmax in ICR mouse serum at 10 mg/kg, po measured after 24 hrs by LC-MS/MS analysis; format: ADME, organism-based; design: dose 10 mg/kg, time 24 hrs, route po
[18] = Cmax in ICR mouse liver at 10 mg/kg, po measured after 24 hrs by LC-MS/MS analysis; format: ADME, organism-based; design: dose 10 mg/kg, time 24 hrs, route po
[19] = AUClast in ICR mouse serum at 10 mg/kg, po measured after 24 hrs by LC-MS/MS analysis; format: ADME, organism-based; design: time 24 hrs, dose 10 mg/kg, route po
[20] = AUClast in ICR mouse liver at 10 mg/kg, po measured after 24 hrs by LC-MS/MS analysis; format: ADME, organism-based; settings: in vivo
[21] = Toxicity in ICR mouse assessed as decrease in serum total cholesterol level at 30 mg/kg, po administered as single dose measured after 24 hrs by automated biochemical analyzer; format: organism-based; design: scale not given: the % may be the effect or the level left; settings: in vivo
[22] = Toxicity in ICR mouse assessed as decrease in serum total cholesterol level at 3 mg/kg, po administered as single dose measured after 24 hrs by automated biochemical analyzer; format: organism-based; design: scale not given: the % may be the effect or the level left; settings: in vivo
[23] = Toxicity in ICR mouse assessed as decrease in serum total cholesterol level at 10 mg/kg, po administered as single dose measured after 24 hrs by automated biochemical analyzer; format: organism-based; design: scale not given: the % may be the effect or the level left; settings: in vivo
[24] = Toxicity in ICR mouse assessed as decrease in serum total LDL-cholesterol level at 3 mg/kg, po administered as single dose measured after 24 hrs by automated biochemical analyzer; format: organism-based; design: scale not given: the % may be the effect or the level left; settings: in vivo
[25] = Toxicity in ICR mouse assessed as decrease in serum total LDL-cholesterol level at 10 mg/kg, po administered as single dose measured after 24 hrs by automated biochemical analyzer; format: organism-based; design: scale not given: the % may be the effect or the level left; settings: in vivo
[26] = Hepatotoxicity in ICR mouse assessed as upregulation of Dio1 mRNA expression in liver by measuring fold change at 3 to 10 mg/kg, po administered as single dose by qRT-PCR analysis; format: toxicity, organism-based; settings: in vivo, dose 3-10 mg/kg
[27] = Hepatotoxicity in ICR mouse assessed as upregulation of THRSP mRNA expression in liver by measuring fold change at 3 to 10 mg/kg, po administered as single dose by qRT-PCR analysis; format: toxicity, organism-based; settings: in vivo, dose 3-10 mg/kg
[28] = Hepatotoxicity in ICR mouse assessed as upregulation of Me1 mRNA expression in liver by measuring fold change at 3 to 10 mg/kg, po administered as single dose by qRT-PCR analysis; format: toxicity, organism-based; settings: in vivo, dose 3-10 mg/kg
[29] = Cardiotoxicity in ICR mouse assessed as changes in Myh6 mRNA expression in heart at 3 to 10 mg/kg, po administered as single dose by qRT-PCR analysis; format: toxicity, organism-based; settings: in vivo, dose 3-10 mg/kg
[30] = Cardiotoxicity in ICR mouse assessed as changes in Myh7 mRNA expression in heart at 3 to 10 mg/kg, po administered as single dose by qRT-PCR analysis; format: toxicity, organism-based; settings: in vivo, dose 3-10 mg/kg
[31] = Cardiotoxicity in ICR mouse assessed as changes in Myh6/Myh7 ratio in heart at 3 to 10 mg/kg, po administered as single dose by qRT-PCR analysis; format: toxicity, organism-based; settings: in vivo, dose 3-10 mg/kg

N[C@@H](Cc1cc(I)c(Oc2ccc(O)c(I)c2)c(I)c1)C(=O)O [LIOTHYRONINE]
Activity [1]: 44%
Activity [2]: 61.9%
Activity [3]: Toxic

CC(C)c1cc(Oc2c(Cl)cc(-n3nc(C#N)c(=O)[nH]c3=O)cc2Cl)n[nH]c1=O [RESMETIROM]
half-life [4]: 16.7 h
Tmax [5]: 6 h
Cmax [6]: 12100 ng/mL
AUC(0-t) at 24 h [7]: 168 µg·h/mL
half-life [8]: 1.32 h
half-life [9]: 4.08 h
half-life [10]: 3.88 h
CLH [11]: 26.5 mL/min/g
CLH [12]: 8.6 mL/min/g
CLH [13]: 9 mL/min/g
half-life [14]: 9.1 h
Tmax [15]: 2.7 h
Tmax [16]: 4 h
Cmax [17]: 5710 ng/mL
Cmax [18]: 24300 ng/g
AUC(0-t) at 24 h [19]: 57.1 µg·h/mL
AUClast [20]: 349501 ng·h/g
Activity [21]: 20.4%
Activity [22]: 27.2%
Activity [23]: 36.9%
Activity [24]: 39.3%
Activity [25]: 39.8%
fold change (FC) [26]: 12
fold change (FC) [27]: 10
fold change (FC) [28]: 1.8
Activity [29]: Non-Toxic
Activity [30]: Non-Toxic
Activity [31]: Non-Toxic
